Data: patent publication US7713477B2, “Systems and methods for monitoring chemical and biological activities using differential measurements” (priority 2002, dated 2010)

B1: IL4: interleukin tested on TF-1 cells (protein, UniProt P05112 25-153, looked up)
Interleukin-4: HKCDITLQEIIKTLNSLTEQKTLCTELTVTDIFAASKNTTEKETFCRAATVLRQFYSHHEKDTRCLGATAQQFHRHKQLIRFLKRLDRNLWGLAGLNSCPVKEANQSTLENFLERLKTIMREKYSKCSS

Assays:
TF-1 cells [1] = assay: Differential response of TF-1 cells against stimuli and controls at one, two and five minutes (FIG. 9B); assay type: cell-based; conditions: two and five minutes after stimulation, factor 100:1 dilution in d-PBS, 25 microliter into approximately 200 microliters cell suspension
Source text: FIG. 9B illustrates a second set of experiments, in which the differential responses of a population of TF-1 cells against numerous stimuli and controls are shown at one minute, two minutes, and five minutes after stimulation. In these experiments, a population of TF-1 cells was fractionated into two portions of equal volume and cell density immediately before the experiment. One of the two fractions received a potential stimulus, and the other a control in the form of a quantity of pure Dulbecco's phosphate buffered saline (d-PBS)equal to the quantity of d-PBS which contained the stimulant. […] Next, a series of factors and interleukins was compared against a reference sample. Each factor was introduced into one of two fractionated volumes containing TF-1 cells, via a 100:1 dilution of factor to d-PBS, followed by a 25 microliter addition of the diluted factor into approximately 200 microliters of the cell suspension. At the same time, the reference population of cells was prepared by adding 25 microliters of d-PBS alone into the second of the two cell fractions. Both fractions were then inserted into their respective channels in the apparatus, wherein said reference population was always inserted in the same channel, and measurements of the differential voltage were taken at pre-defined intervals over a five minute period. After each experiment, both channels were flushed with ˜2 ml of cell-free culture media, to insure that all previous cellular material and any other potential compounds from a given experiment were removed from the channel before the subsequent experiment.

TF-1 cells [2] = conditions: stated as known, background knowledge; cited from earlier work
concanavalin-A = concanavalin-A (Canavalia ensiformis, UniProt P02866); assay: Binding of dextran in solution to concanavalin-A immobilized on the measurement probes (FIG. 6); conditions: phosphate buffered saline with calcium and magnesium, physiologic pH and osmolarity; regions 600b and 600c of FIG. 6
Source text: A common AC voltage of approximately 40 millivolts and at a frequency of approximately 1 KHz is placed upon measurement probes 313 and 323. The circuit continues across the interface of measurement probes 313 and 323, through the conductive solution in sample chambers 310 and 320, and completed via attachment of signal grounds 314 and 324.
The voltage difference between measurement probes 313 and 317 is placed across the antipodal inputs of the first differential amplifier 221; similarly, the voltage across measurement probes 323 and 327 is placed across antipodal inputs of the second differential amplifier 222. The amplified differential voltages produced by 221 and 222 are fed into DC-converters 224 and 225 (e.g., root-mean-square averaging devices. The outputs 221a and 222a, being now of a DC nature, are input into antipodal inputs of the third differential amplifier 226, the resulting difference signal 227 being measured by a simple voltmeter 400, said voltmeter referenced to the common ground. This voltage is directly proportional to the difference in the voltage drops across the two pairs of measurement probes 313 and 317, and 323 and 327.
FIG. 6 illustrates the result of a second experiment using the monitoring system of FIG. 3B. […]

TF-1 cells [3] = assay: Differential response of TF-1 cells stimulated vs un-stimulated, monitoring system of FIG. 8 (FIG. 9A); assay type: cell-based
Source text: In this set of experiments, the monitoring system as shown in FIG. 8 was used to directly compare the activity of a known modification of the extra-cellular environment to controls. In the monitoring system of FIG. 8, two sample chambers (formed a fluid channels) 800a and 800b, along with four ports 801a-d, were fabricated using micromachining techniques on an acrylic substrate. The dimensions of the channels were approximately 250 micrometers wide, 100 micrometers deep, and with a total length of approximately 1.5 centimeters. The substrate was fastened in a water-tight manner, using thin film epoxy, to a pre-fabricated printed circuit board (not explicitly shown), on which eight gold-plated copper conductive traces 820a-d and 830a-d of width approximately 250 micrometers were deposited. Using the monitoring system architecture shown in FIG. 3D, in which the phase meter 223 was not present and DC-converters 224 and 225 comprised a device which converts and AC signal into a DC signal, whose amplitude is roughly the root-mean-square (RMS) of the AC amplitude. […]

Molecule	differential response over the three controls (TF-1 cells [1])	known activity against TF-1 cells (TF-1 cells [2])	other results
IL5: interleukin tested on TF-1 cells	significantly larger differential response over the three controls		
bovine serum albumin [BSA, reference compound]		known not to affect TF-1 cells	
dextran			binding of dextran to immobilized concanavalin-A, shown as new voltage level (concanavalin-A): bound specifically to the immobilized concanavalin-A molecules
granulocyte-macrophage colony stimulating factor [GM-CSF]	significantly larger differential response over the three controls	induces cell proliferation in TF-1 cells	time at which change in differential response begins (TF-1 cells [3]; AC approximately 10 KHz, thirty minute experiment, change continues nearly monotonic): around eight; differential response of stimulated cells over the control (TF-1 cells [3]; AC frequency approximately 10 KHz, about 2 million cells per milliliter, GM-CSF in quantity to elicit maximum response, followed thirty minutes): show a change in the differential response over the control
B1	significantly larger differential response over the three controls		
